IC50 data for 67 compounds are collected here from patent US12577217B2, “15-PGDH inhibitor” (KYORIN Pharmaceutical Co., Ltd., priority 2019, dated 2026).

Molecules are shown by their SMILES.

For this experiment, the target named is T1, recombinant human 15-PGDH (Homo sapiens, UniProt P15428).
T1 construct: purchased R&D Systems
T1 sequence (P15428 1-266): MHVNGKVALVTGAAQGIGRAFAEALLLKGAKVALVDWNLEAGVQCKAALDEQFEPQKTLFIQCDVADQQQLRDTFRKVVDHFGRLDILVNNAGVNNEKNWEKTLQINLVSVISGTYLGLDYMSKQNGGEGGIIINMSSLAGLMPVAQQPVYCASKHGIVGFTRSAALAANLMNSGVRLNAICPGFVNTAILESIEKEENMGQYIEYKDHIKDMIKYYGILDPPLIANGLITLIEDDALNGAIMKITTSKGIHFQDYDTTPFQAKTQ
The experiment can be described thus: 15-PGDH enzyme inhibition test. As to conditions: 4 nM recombinant human 15-PGDH, 30 μM PGE2, 1 mM NAD+, 60 minutes after starting the reaction; read-out: IC50 Value. Format: biochemical. An outline of the steps:
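Fluorescence (excitation 340 nm, emission 440 nm) measured 60 min after adding 1 mM NAD+ and 30 μM PGE2 to 4 nM recombinant human 15-PGDH, which had stood 12 min at room temperature with compound in pH 8.0 Tris-HCl buffer. Concentration-response curves yield IC50, binned into potency categories.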
As to `CNC(=O)c1ccc(N2CCCc3cc(C(=O)N4CCC(F)(F)CC4)cnc32)cc1F` [Example 1-175], the IC50 was under 10 nM.
Take `COC(=O)C1CN(C(=O)c2cnc3c(c2)OCCN3c2ccn3c(=O)n(C)nc3c2)C1` [Example 8-37]: the 50% inhibitory concentration (IC50) was under 10 nM.
As to `O=C(c1cnc2c(c1)CCCN2c1ccc2c(c1)CN(CC1COC1)C2=O)N1CCC(F)(F)CC1` [Example 1-177], the half-inhibitory concentration (IC50) is under 10 nM.
To `O=C(O)c1ccc(N2CCOc3c2ccc(C(=O)N2CCCCC2)c3Cl)cc1` [Example 2-4] belongs under 10 nM; to `COC(=O)C(C)(C)c1ccc(N2CCOc3cc(C(=O)N4CCCCC4)cnc32)cc1` [Example 1-247], over 100 nM.
For the compound `NC(=O)c1ccc(N2CCOc3cc(C(=O)N4CCCCC4)ccc32)nc1` [Example 6-2], the IC50 is under 10 nM.
Consider `Cn1nc2cc(N3CCOc4cc(C(=O)N5CCC(F)(F)CC5)sc43)ccn2c1=O` [Example 8-223], for which the IC50 lay within 10 to 100 nM.
Regarding `CC1CCN(C(=O)c2cnc3c(c2)OCCN3c2ccn3c(=O)n(C)nc3c2)CC1` [Example 8-44], the IC50 is under 10 nM.
In the case of `Cn1nc2cc(N3CCOc4cc(C(=O)N5CC6CC6C5)cnc43)ccn2c1=O` (stereo not shown) [Example 8-99], the half-inhibitory concentration (IC50) is under 10 nM.
As for `CCn1nc2cc(N3CCCc4cc(C(=O)N5CCCC(C)(F)C5)cnc43)ccn2c1=O` (stereo not shown) [Example 8-166], the 50% inhibitory concentration (IC50) was under 10 nM.
To `CCOCn1nc2cc(N3CCOc4cc(C(=O)N5CCCCC5)cnc43)ccn2c1=O` [Example 1-268] belongs under 10 nM.
Take `O=C(O)c1ccc(N2CCCCOc3cc(C(=O)N4CCCCC4)cnc32)cc1` [Example 2-9]: the IC50 was under 10 nM.
To `CCN1Cc2cc(N3CCCc4cc(C(=O)N5CCCC[C@@H]5C)cnc43)ccc2C1=O` [Example 8-79] belongs under 10 nM.
As for `COC(=O)c1nc2ccc(N3CCOc4cc(C(=O)N5CCCCC5)cnc43)cc2s1` [Example 11-3], the figure is under 10 nM; as for `CN(C)C(=O)Cn1nc2cc(N3CCOc4cc(C(=O)N5CCCCC5)cnc43)ccn2c1=O` [Example 6-8], under 10 nM.
For the compound `O=C(c1cnc2c(c1)OCCN2c1ccc2c(c1)CN(C1CC1)C2=O)N1CCCCC1` [Example 1-224], the IC50 is under 10 nM.
As for `O=C(c1ccc2c(c1)OCCN2c1ccc(-c2nnn[nH]2)cc1)N1CCC(F)(F)CC1` [Example 3-1, (4-(4-(1H-Tetrazol-5-yl)phenyl)-3,4-dihydro-2H-benzo[b][1,4]oxazin-7-yl)(4,4-difluoropiperidin-1-yl)methanone], the figure is under 10 nM; as for `COC(=O)c1ccc(N2CCN(c3ccn4c(=O)n(C)nc4c3)c3ncc(C(=O)N4CCC(F)(F)CC4)cc32)cc1` [Example 30-3], 10 to 100 nM.
As for `CCn1nc2cc(N3CCCc4cc(C(=O)N5CCC[C@@H](CF)C5)cnc43)ccn2c1=O` [Example 1-120], the figure is under 10 nM; as for `Cn1nc2cc(N3CCOc4cc(C(=O)N5CCCC(C)(F)C5)cnc43)ccn2c1=O` (stereo not shown) [Example 8-48], under 10 nM; as for `CC1c2cc(N3CCOc4cc(C(=O)N5CCCCC5)cnc43)ccc2C(=O)N1C` (single isomer, unassigned) [16-1 Isomer A], under 10 nM.
To `COCn1nc2cc(N3CCCc4cc(C(=O)N5CCC(F)(F)CC5)cnc43)ccn2c1=O` [Example 1-76] belongs under 10 nM; to `O=C(c1cnc2c(c1)CCCN2c1cc2c(cn1)C(=O)N(CC1COC1)C2)N1CCC(F)(F)CC1` [Example 1-186], 10 to 100 nM; to `NC(=O)c1ccc(N2CCOc3cc(C(=O)N4CCCCC4)cnc32)cc1F` [Example 6-4], under 10 nM.
On to `CNC(=O)C1CCC(N2CCOc3cc(C(=O)N4CCCCC4)ccc32)CC1` (stereo not shown) [Example 6-16], for which the concentration for half-maximal inhibition (IC50) is 10 to 100 nM.
To `CN1Cc2cc(N3CCOc4cc(C(=O)N5CCCCC5)cnc43)ncc2C1=O` [Example 1-103] belongs under 10 nM; to `COCn1nc2cc(N3CCCc4cc(C(=O)N5CC[C@H](C)C5)cnc43)ccn2c1=O` [Example 8-120], under 10 nM.
As for `CNC(=O)c1ccc(N2CCOc3cc(C(=O)N4CC=CCC4)ccc32)cc1OC` [Example 5-3], the 50% inhibitory concentration (IC50) is under 10 nM.
On to `Cn1nc2cc(N3CCCCOc4cc(C(=O)N5CCCCC5)cnc43)ccn2c1=O` [Example 1-98], for which the IC50 fell in the range of 10 to 100 nM.
Turning to `COCCOCCn1nc2cc(N3CCCc4cc(C(=O)N5CCCCC5)cnc43)ccn2c1=O` [Example 1-71], the IC50 is under 10 nM.
Turning to `COc1cc(N2CCOc3cc(C(=O)N4CCCCC4)cnc32)ccc1C(=O)O` [Example 4-15], the IC50 lay within 10 to 100 nM.
To `O=C(c1cnc2c(c1)OCCN2c1ccc2c(c1)CN(C1CC1)C2=O)N1CCC(F)(F)CC1` [Example 1-227] belongs under 10 nM.
With `O=C(c1cnc2c(c1)OCCN2c1cccnc1)N1CCCCC1` [Example 1-234], the IC50 fell in the range of 10 to 100 nM.
Turning to `CCn1nc2cc(N3CCCc4cc(C(=O)N5CCC(F)(F)CC5)cnc43)ccn2c1=O` [Example 1-75], the IC50 is under 10 nM.
Take `O=C(c1cnc2c(c1)OCCN2c1ccn2c(=O)n(-c3ccccn3)nc2c1)N1CCCCC1` [Example 1-35]: the 50% inhibitory concentration (IC50) is under 10 nM.
As for `CNC(=O)c1ncc(N2CCCc3cc(C(=O)N4CCC(F)(F)CC4)cnc32)cc1F` [Example 1-180], the figure is under 10 nM.
Consider `COc1cc(N2CCOc3cc(C(=O)N4CC=CCC4)ccc32)ccc1C(=O)O` [Example 2-14], for which the half-inhibitory concentration (IC50) is under 10 nM.
`CN(C)C(=O)c1ccc(N2CCOc3cc(C(=O)N4CCCCC4)cnc32)cc1` [Example 6-19]: the concentration for half-maximal inhibition (IC50) was under 10 nM.
For the compound `O=C(c1cnc2c(c1)CCCN2c1ccc2c(c1)CN(C1CC1)C2=O)N1CCC(F)(F)CC1` [Example 1-213], the concentration for half-maximal inhibition (IC50) was under 10 nM.
As for `O=C(O)c1cccc(N2CCc3cc(C(=O)N4CCCCC4)ccc32)c1` [Example 2-29], the figure is under 10 nM; as for `Cn1nc2cc(N3CCOc4cc(C(=O)N5CCC[C@@H](CF)C5)cnc43)ccn2c1=O` [Example 8-66], under 10 nM; as for `Cn1ccc2ccc(N3CCOc4cc(C(=O)N5CCCCC5)cnc43)cc21` [Example 1-91], 10 to 100 nM.
To `O=C(c1cnc2c(c1)CCCN2c1cnc2c(=O)[nH]ncc2c1)N1CCCCC1` [Example 1-195] belongs under 10 nM.
To `Cn1ccc2cc(N3CCCc4cc(C(=O)N5CCC(F)(F)CC5)cnc43)ccc2c1=O` [Example 1-182] belongs under 10 nM; to `CN1CCN(C(=O)c2cnc3c(c2)OCCN3c2ccc(C(=O)O)cc2)CC1` [Example 4-11], 10 to 100 nM; to `CCOCCN1Cc2cc(N3CCOc4cc(C(=O)N5CCC(F)(F)CC5)cnc43)ncc2C1=O` [Example 1-51], 10 to 100 nM.
In the case of `Cn1nc2cc(N3CCCc4cc(C(=O)N5CCC[C@H](C(F)(F)F)C5)cnc43)ccn2c1=O` [Example 8-146], the IC50 was under 10 nM.
For the compound `COc1ccc(CN2Cc3cc(N4CCOc5cc(C(=O)N6CCCCC6)cnc54)ccc3C2=O)cc1` [Example 1-37], the concentration for half-maximal inhibition (IC50) is under 10 nM.
Turning to `Cn1nc2cc(N3CCCc4cc(C(=O)N5CCC[C@@H](C(F)(F)F)C5)cnc43)ccn2c1=O` [Example 8-145], the IC50 is 10 to 100 nM.
To `CCn1nc2cc(N3CCCc4cc(C(=O)N5CCC[C@H](F)C5)cnc43)ccn2c1=O` [Example 8-163] belongs under 10 nM.
As for `O=C(c1cnc2c(c1)CCCN2c1ccc2c(=O)[nH]cnc2c1)N1CCC(F)(F)CC1` [Example 8-96], the figure is under 10 nM; as for `O=C(c1cnc2c(c1)OCCN2c1ccn2ncnc2c1)N1CCCCC1` [Example 1-106], under 10 nM; as for `CN1Cc2cc(N3CCOc4cc(C(=O)N5CCCCCC5)cnc43)ccc2C1=O` [Example 8-186], under 10 nM.
As for `CCN1Cc2cc(N3CCOc4cc(C(=O)N5CCCCC5)cnc43)ccc2C1=O` [Example 8-18], the figure is under 10 nM; as for `Cn1nc2cc(N3CCOc4cc(C(=O)N5CCCCC5)cnc43)ccn2c1=O` [Example 1-21], under 10 nM; as for `O=C1NCc2cc(N3CCOc4cc(C(=O)N5CCCCC5)cnc43)ccc21` [Example 14-2], under 10 nM.
Take `Cn1nc2cc(N3CCOc4cc(C(=O)N5CCc6ccccc65)cnc43)ccn2c1=O` [Example 8-104]: the half-inhibitory concentration (IC50) was in the range of 10 to 100 nM.
To `Cn1nc2cc(N3CCCc4cc(C(=O)N5CCC[C@H](F)C5)cnc43)ccn2c1=O` [Example 8-138] belongs under 10 nM; to `O=C(O)c1ccccc1N1CCOc2cc(C(=O)N3CCCCC3)ccc21` [Example 2-27], over 100 nM; to `O=C(c1cnc2c(c1)CCCN2c1ccc(F)cc1)N1CCCCC1` [Example 1-214], 10 to 100 nM.
On to `CN1Cc2cc(N3CCCc4cc(C(=O)N5CCC(F)(F)CC5)cnc43)ccc2C1=O` [Example 1-81], for which the half-inhibitory concentration (IC50) is under 10 nM.
Take `COc1cc(N2CCOc3cc(C(=O)N4CCCCC4)ccc32)ccc1C(=O)O` [Example 2-12]: the half-maximal inhibitory concentration (IC50) was under 10 nM.
In the case of `CN1CCN(c2ccccc2)c2ncc(C(=O)N3CCCCC3)cc21` [Example 1-228], the concentration for half-maximal inhibition (IC50) was over 100 nM.
As for `COc1ccc(N2CCOc3cc(C(=O)N4CCCCC4)cnc32)cc1` [Example 1-245], the figure is 10 to 100 nM; as for `Cn1nc2cc(N3CCOc4cc(C(=O)N5CCCC(F)(F)C5)cnc43)ccn2c1=O` [Example 8-24], under 10 nM.
To `COC(=O)C1CCCN(C(=O)c2cnc3c(c2)OCCN3c2ccn3c(=O)n(C)nc3c2)C1` (stereo not shown) [Example 8-36] belongs under 10 nM.
To `Cn1nc2cc(N3CCOc4cc(C(=O)N5CCCC6(CCC6)C5)cnc43)ccn2c1=O` [Example 8-67] belongs under 10 nM.

For orientation: IC50 means the concentration that inhibits the measured activity by half.
